According to patent US9447100B2, “Substituted pyrazolo[1,5-A] pyrimidines as calcium receptor modulating agents” (Takeda Pharmaceutical Company Limited, priority 2002, dated 2016):
Where a name gives a salt, the structure may show the parent alone.

Target: T1, human CaR (Homo sapiens, UniProt P41180)
T1 construct: expressed in transfected cells; host or cells: CHO-K1 cells stably transfected with pMSRαneo-CaR (cDNA amplified from human kidney cDNA); membrane fraction used
T1 sequence (P41180 20-1078): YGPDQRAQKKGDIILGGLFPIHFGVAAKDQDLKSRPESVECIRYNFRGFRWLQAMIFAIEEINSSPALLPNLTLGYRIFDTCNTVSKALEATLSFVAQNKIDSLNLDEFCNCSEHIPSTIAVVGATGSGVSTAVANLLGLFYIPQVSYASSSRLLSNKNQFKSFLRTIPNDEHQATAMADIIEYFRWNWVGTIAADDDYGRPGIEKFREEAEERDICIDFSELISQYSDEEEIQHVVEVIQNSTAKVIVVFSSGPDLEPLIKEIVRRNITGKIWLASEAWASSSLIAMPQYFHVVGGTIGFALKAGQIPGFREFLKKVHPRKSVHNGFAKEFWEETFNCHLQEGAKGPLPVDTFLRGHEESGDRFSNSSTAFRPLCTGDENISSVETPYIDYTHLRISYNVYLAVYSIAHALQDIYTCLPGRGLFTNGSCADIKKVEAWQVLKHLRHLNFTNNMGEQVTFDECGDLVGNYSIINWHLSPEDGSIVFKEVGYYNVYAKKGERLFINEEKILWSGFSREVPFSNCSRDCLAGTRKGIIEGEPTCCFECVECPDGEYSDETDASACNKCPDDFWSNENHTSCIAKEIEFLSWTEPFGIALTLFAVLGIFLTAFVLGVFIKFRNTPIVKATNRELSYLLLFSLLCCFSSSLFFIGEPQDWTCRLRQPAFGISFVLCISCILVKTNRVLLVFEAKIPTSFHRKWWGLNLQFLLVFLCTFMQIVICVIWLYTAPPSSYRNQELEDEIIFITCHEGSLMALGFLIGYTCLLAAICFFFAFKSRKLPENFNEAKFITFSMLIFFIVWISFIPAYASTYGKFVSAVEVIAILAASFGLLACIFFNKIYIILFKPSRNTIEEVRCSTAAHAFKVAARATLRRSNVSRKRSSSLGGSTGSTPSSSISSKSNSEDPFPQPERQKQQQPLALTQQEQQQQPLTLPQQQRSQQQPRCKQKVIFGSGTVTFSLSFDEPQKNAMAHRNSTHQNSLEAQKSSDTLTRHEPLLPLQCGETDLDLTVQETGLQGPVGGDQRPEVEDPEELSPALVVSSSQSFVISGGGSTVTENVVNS
Assay: [35S]-GTPγS binding assay in membrane fraction of human CaR-expressing CHO cells
Type: biochemical
Conditions: test compound 1 μM; relative to binding with 6 mM calcium only (100×(t′−b)/(t−b)); compounds marked antagonist
Description: Preparation of membrane fraction is described bellow. The human CaR-expressing CHO cells were inoculated to a F500 flask in 1.8×10^5 cells/flask followed by cultivation for 2 days. The cells were scraped with 10 ml of Phosphate-Buffered Saline containing 0.02% EDTA. After centrifugation (2000 rpm, 10 min) of the cells, the cell pellet was resuspended into 12 ml of homogenate buffer solution (10 mM NaHCO3, 1 mM EDTA, 1× Protease inhibitor cocktail (pH 7.4)) and homogenized by Polytron™ (20000 rpm, 1 min). The cell debris was removed by centrifugation (2000 rpm, 10 min), and then the CaR-expressing cell membrane fraction was collected by ultracentrifugation (Beckman 70 Ti type rotor, 30000 rpm, 1 hour).
The GTPγS binding activity was measured as follows. Twenty μg of the CaR-expressing cell membrane was incubated with test compounds for 10 min. The assays were carried out at room temperature for an hour in a reaction solution mixture containing 20 mM HEPES (pH. 7.4), 100 mM NaCl, 1 mM MgCl2, 167 μg/ml DTT, 5 μM guanosine 5′-diphosphate, 0.4 nM [^35S]-guanosine 5′-(γ-thio)triphosphate ([^35S]-GTPγS) and 6 mM CaCl2. The mixture was filtered through a GF/C filter. After washing fourth with 300 μl of Phosphate-Buffered Saline, the amount of [^35S]-GTPγS bound to the filter was measured using a Top-count scintillation counter.
Effects of test compounds on [^35S]-GTPγS binding were expressed in percentage terms. This was calculated from the equation [100×(t′−b)]/(t−b) where t′, t and b are values of [^35S]-GTPγS binding (dpm), t′ in the presence of 6 mM calcium and the test compound, t in the presence of 6 mM calcium only and b in the absence of both 6 mM calcium and the test compound.

| [35S]-GTPγS binding (%) | SMILES |
| --- | --- |
| 34 (1 μM) % | COc1ccc(C(CNC(=O)c2cnn3c2NC(c2ccccc2)CC3C(F)(F)F)c2ccccc2)cc1 (centres unmarked) [Example 318, N-(2-(4-methoxyphenyl)-2-phenylethyl)-5-phenyl-7-(trifluoromethyl)-4,5,6,7-tetrahydropyrazolo[1,5-a]pyrimidine-3-carboxamide] |
| 12 (1 μM) % | CC1(C(F)(F)F)CC(c2ccccc2)Nc2c(C(=O)NC34CC5CC(CC(C5)C3)C4)cnn21 (centres unmarked) [Example 436, N-(1-adamantyl)-7-methyl-5-phenyl-7-(trifluoromethyl)-4,5,6,7-tetrahydropyrazolo[1,5-a]pyrimidine-3-carboxamide] |
| 0 (1 μM) % | CCC(CC)(NC(=O)c1cnn2c1NC(c1ccccc1)CC2(C)C)c1ccc(-c2ccsc2)cc1 (centres unmarked) [Example 423, N-(1-ethyl-1-(4-(3-thienyl)phenyl)propyl)-7,7-dimethyl-5-phenyl-4,5,6,7-tetrahydropyrazolo[1,5-a]pyrimidine-3-carboxamide] |
| 0 (1 μM) % | CCC(CC)(NC(=O)c1cnn2c1NC(c1ccccc1)CC2C(F)(F)F)c1ccc(C(F)(F)F)cc1 (centres unmarked) [Example 310, N-(1-ethyl-1-(4-(trifluoromethyl)phenyl)propyl)-5-phenyl-7-(trifluoromethyl)-4,5,6,7-tetrahydropyrazolo[1,5-a]pyrimidine-3-carboxamide] |
| 10 (1 μM) % | Cc1ccc(C(OC2CCN(C(=O)c3cnn4c3NC(c3ccccc3)CC4C(F)(F)F)CC2)c2ccc(C)cc2)cc1 (centres unmarked) [Example 312, 3-((4-(bis(4-methylphenyl)methoxy)-1-piperidinyl)carbonyl)-5-phenyl-7-(trifluoromethyl)-4,5,6,7-tetrahydropyrazolo[1,5-a]pyrimidine] |
| 0 (1 μM) % | COc1ccc(C(NC(=O)c2cnn3c2NC(c2ccccc2)CC3C)c2ccc(OC)cc2)cc1 (centres unmarked) [Example 335, N-(bis(4-methoxyphenyl)methyl)-7-methyl-5-phenyl-4,5,6,7-tetrahydropyrazolo[1,5-a]pyrimidine-3-carboxamide] |

Same assay, conditions: test compound 10 μM; relative to binding with 6 mM calcium only (100×(t′−b)/(t−b)); compound marked agonist

| [35S]-GTPγS binding (%) | SMILES |
| --- | --- |
| 256 (10 μM) % | O=C(NCC(c1ccccc1)N1CCCC1)c1cnn2c1N[C@@H](c1ccccc1)C[C@H]2C(F)(F)F (stereo in doubt) [Example 111, 5-phenyl-N-(2-phenyl-2-(1-pyrrolidinyl)ethyl)-7-(trifluoromethyl)-4,5,6,7-tetrahydropyrazolo[1,5-a]pyrimidine-3-carboxamide] |

Test system: not given
Assay: not given
Conditions: not given

| SMILES | melting point [°C] |
| --- | --- |
| CCC1(CC)C[C@H](O)CN1C(=O)c1cnn2c1N[C@@H](c1ccccc1)CC2(C)C (as salt: HCl) [Example 1118, (3S)-1-(((5R)-7,7-dimethyl-5-phenyl-4,5,6,7-tetrahydropyrazolo[1,5-a]pyrimidin-3-yl)carbonyl)-5,5-diethyl-3-pyrrolidinol] | 247 to 249 |
| CCOC(=O)c1cnn2c1NC(c1ccco1)CC2C(F)(F)F (centres unmarked) [Example 14, ethyl 5-(2-furyl)-7-(trifluoromethyl)-4,5,6,7-tetrahydropyrazolo[1,5-a]pyrimidine-3-carboxylate] | 86 |
| O=C(c1cnn2c1NC(c1ccccc1)CC2C(F)(F)F)N1CCN(C(c2ccccc2)c2ccccc2)CC1 (centres unmarked) [Example 274, 3-((4-benzhydryl-1-piperazinyl)carbonyl)-5-phenyl-7-(trifluoromethyl)-4,5,6,7-tetrahydropyrazolo[1,5-a]pyrimidine] | 181 to 182 |

Second part, the molecule after the results:

| melting point [°C] | SMILES |
| --- | --- |
| 180 to 182 | CCC(CC)(NC(=O)c1c(C)nn2c1N[C@@H](c1ccccc1)CC2(C)C)c1ccccc1F (as salt: HCl) [Example 1063, (5R)-N-(1-ethyl-1-(2-fluorophenyl)propyl)-2,7,7-trimethyl-5-phenyl-4,5,6,7-tetrahydropyrazolo[1,5-a]pyrimidine-3-carboxamide] |
| 129 to 130 | CCC(CC)(NC(=O)c1c(C)nn2c1N[C@@H](c1ccccc1)CC2(C)C)c1ccc(C)c(Cl)c1 (as salt: HCl) [Example 1069, (5R)-N-(1-(3-chloro-4-methylphenyl)-1-ethylpropyl)-2,7,7-trimethyl-5-phenyl-4,5,6,7-tetrahydropyrazolo[1,5-a]pyrimidine-3-carboxamide] |
| 152 to 154 | CCC(CC)(NC(=O)c1c(C)nn2c1NC(c1ccc(C)cc1)CC2(C)C)c1ccc(C)cc1 (centres unmarked) (as salt: HCl) [Example 973, N-(1-ethyl-1-(4-methylphenyl)propyl)-2,7,7-trimethyl-5-(4-methylphenyl)-4,5,6,7-tetrahydropyrazolo[1,5-a]pyrimidine-3-carboxamide] |
| 168 to 169 | CCC(CC)(NC(=O)c1cnn2c1NC(c1cccc(OC)c1)CC2(C)C)c1ccc(C)cc1 (centres unmarked) (as salt: HCl) [Example 820, N-(1-ethyl-1-(4-methylphenyl)propyl)-5-(3-methoxyphenyl)-7,7-dimethyl-4,5,6,7-tetrahydropyrazolo[1,5-a]pyrimidine-3-carboxamide] |
